The record followed here is patent US5449592A, “Silver halide color photographic light sensitive material for color proof and method for preparing color proof using the same” (Konica Corporation, priority 1988, dated 1995).

One may read the pKa as the pH at which an ionisable group is half protonated. A high value points to a group that holds its proton tightly.

Molecules are shown by their SMILES.

The first series is described as follows: pKa of couplers, spectrophotometric method. Format: physicochemical. The settings on record: spectrophotometric method (no asterisk); 2-butoxyethanol and water (30:70). The text has this: (§1) In this invention, a pKa value means a common logarithmic value of the reciprocal of a proton-dissociation equilibrium constant K at the active site of a coupler.
As described in, for example, J.C.S., Perkin I, 809(1973) and 1768(1973), J. Phot. Sci., 22,49(1974), E. Pelizzrtti(3M, Italia), C. Saini(Toino Vniv.) and J. Phot. Sci., 13,248(1985) B. P. Brand (ICI), a pKa value can be measured in a spectrophotometric method or a neutralization-titration mehtod, using a suitable solvent such as a mixture of water and organic solvent.
In the spectrophotometric method, a pka value of coupler is regarded as a pH value obtained in correspondence with the inflection point of a rerational curve obtained between the pH and absorbance of a coupler solution, utilizing the fact that there is a difference in absorbance between the coupler itself and the anion thereof.
To be more concrete, the above-mentioned coupler solution is prepared by the use of a mixture of 2-butoxyethanol and water (30:70) as a solvent. The concentration of the coupler solution is adjusted to the order of 1×10^-5 to 1×10^-2 M so that pKa values can readily be measured. The coupler solution is added with anhydrous potassium carbonate in an amount of 3 g per liter, and is further adjusted to be various pH values by adding hydrochloric acid and potassium hydroxide correspondingly. The spectral absorbance of each solution is then measured so as to obtain a relational curve made between the pH value and the spectral absorbance of each solution.
Certain of couplers have plural dissociable protons. In those cases, plural pKa values may be obtained. Among those values, however, each pKa value of this invention means a value measured in relation to making anionic the nucleus of a coupler capable of forming a dye upon coupling reaction with the oxidized product of a color developing agent.
Either of the above-described two measurement methods may be so selected out as to meet the characteristics of a coupler subjected to a measurement. When measuring one and the same coupler in the two methods, respectively, there are some differences between the resulted pKa values. Howerer, the difference in pKa value between a magenta coupler and yellow coupler used in the invention, i.e., a value of pKa 1-pKa 2, can be applied to the invention, provided that both of the pKa1 and pKa2 values are measured in one and the same method of the two.
In Table 1, pKa values with asterisks are values measured by the neutralization-titration method. The other valves without asterisk are measured by the spectrophotometric method.
Asterisks in Table 2 have the same mean as in Table 1.
For the compound `CCCCOc1ccc(C(C)(C)CC(C)(C)C)cc1Sc1c(SCC)nn2c(CCNC(=O)C(CCCC)Oc3ccc(C(C)(C)CC)cc3C(C)(C)CC)n[nH]c12` (stereo not drawn) [M-49], the pKa came out at 9.43.
Compound `CCCCCCCCCCCCCCCCS(=O)(=O)CCC(C)c1n[nH]c2c(Cl)c(C(C)C)nn12` (stereo not drawn) [M-22] gave a pKa of 9.70.
The same measure, in the same setting: in the case of `CCCCCCCCCCC(Oc1ccc(C(C)(C)c2ccc(O)cc2)cc1)C(=O)Nc1ccc(S(=O)(=O)CCc2n[nH]c3c(Cl)c(C)nn23)cc1` (stereo not drawn) [M-12] it was 9.71; in that of `CCCCCCCCC(CCCCCC)CS(=O)(=O)CCc1nn2c(C)n[nH]c2c1Cl` (stereo not drawn) [M-9], 9.18.
`CCCCCCCCC(CCCCCC)CS(=O)(=O)CCc1n[nH]c2c(Cl)c(C)nn12` (stereo not drawn) [M-4] gave a pKa of 9.11.
For the compound `CCCCC(Oc1ccc(C(C)(C)CC)cc1C(C)(C)CC)C(=O)Nc1ccc(CCc2n[nH]c3c(Cl)c(CC)nn23)cc1` (stereo not drawn) [M-16], the pKa is reported as 10.30.
Same read-out and setting: in the case of `CCCCOc1ccc(C(C)(C)CC(C)(C)C)cc1S(=O)(=O)CCCc1n[nH]c2c(Cl)c(C(C)(C)C)nn12` [M-33] it was 10.39; in that of `CCCCOc1ccc(NS(=O)(=O)c2cc(C(C)(C)CC(C)(C)C)ccc2OCCCC)cc1S(=O)(=O)Nc1ccc(CCCc2n[nH]c3c(Cl)c(C(C)(C)C)nn23)cc1` [M-44], 10.80; in that of `CCC(C)(C)c1ccc(OCC(=O)Nc2ccc(S(=O)(=O)CC(C)(C)c3n[nH]c4c(Cl)c(C(C)(C)C)nn34)cc2)c(C(C)(C)CC)c1` [M-40], 9.90.
`CCCCOc1ccc(C(C)(C)CC(C)(C)C)cc1S(=O)(=O)CCCc1n[nH]c2c(Cl)c(C(C)C)nn12` [M-21] came in with a pKa of 10.07.
Consider `CCCCCCCCCCCCCCCCCCS(=O)(=O)CC(C)c1n[nH]c2c(Cl)c(C)nn12` (stereo not drawn) [M-3], for which the pKa is listed as 8.99.
Turning to `CCCCCCCCOc1ccc(C)cc1S(=O)(=O)CCS(=O)(=O)CCC(C)c1n[nH]c2c(Cl)c(C(C)C)nn12` (stereo not drawn) [M-26], the pKa is 9.68.
With `CCC(C)(C)c1ccc(OCCCC(=O)Nc2ccc(Cl)c(NC(=O)C(Oc3ccc(S(=O)(=O)c4ccc(OCc5ccccc5)cc4)cc3)C(=O)C(C)(C)C)c2)c(C(C)(C)CC)c1` (stereo not drawn) [Y-8], the pKa is 8.60.
`CCCCCCCCCCCCOc1ccc(S(=O)(=O)Nc2ccc(CCCc3n[nH]c4c(Cl)c(C)nn34)cc2)cc1` [M-1] yielded a pKa of 10.24.

A short description of the next series: pKa of couplers, neutralization-titration method. The class given is physicochemical. The note with it: neutralization-titration method (asterisk).
Source text: as §1
As described in, for example, J.C.S., Perkin I, 809(1973) and 1768(1973), J. Phot. Sci., 22,49(1974), E. Pelizzrtti(3M, Italia), C. Saini(Toino Vniv.) and J. Phot. Sci., 13,248(1985) B. P. Brand (ICI), a pKa value can be measured in a spectrophotometric method or a neutralization-titration mehtod, using a suitable solvent such as a mixture of water and organic solvent. […]
Certain of couplers have plural dissociable protons. […] Among those values, however, each pKa value of this invention means a value measured in relation to making anionic the nucleus of a coupler capable of forming a dye upon coupling reaction with the oxidized product of a color developing agent.
Either of the above-described two measurement methods may be so selected out as to meet the characteristics of a coupler subjected to a measurement. […] Howerer, the difference in pKa value between a magenta coupler and yellow coupler used in the invention, i.e., a value of pKa 1-pKa 2, can be applied to the invention, provided that both of the pKa1 and pKa2 values are measured in one and the same method of the two.
In Table 1, pKa values with asterisks are values measured by the neutralization-titration method. […]
The compound `CCCCCCCCCCCCCC(=O)Nc1ccc(Cl)c(NC2=NN(c3c(Cl)cc(Cl)cc3Cl)C(=O)C2)c1` [MC-1] registered a pKa of 10.07.
